{"source": "PubChem BioAssay AID330", "about": "(DTP/NCI, 2004)", "test_system": "P388 leukemia ip, CD2F1 mice, survival T/C", "experiment": "NCI In Vivo Anticancer Drug Screen. Data for tumor model P388 Leukemia (intraperitoneal) in CD2F1 (CDF1) mice", "conditions": "endpoint: median survival time, higher = longer survival", "procedure,_shortened": "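Mice carrying the transplanted tumor received test compound or vehicle. Survival was recorded in each group, and the value is the treated-group measurement divided by that of the vehicle-treated control group.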", "key": {"[1]": {"conditions": "dose: 6.25 mg/kg/injection, schedule: Q01DX009 (ip), vehicle: saline with Tween-80"}, "[2]": {"conditions": "dose: 50.0 mg/kg/injection, schedule: Q01DX005 (ip), vehicle: saline with Tween-80"}, "[3]": {"conditions": "dose: 100.0 mg/kg/injection, schedule: Q01DX005 (ip), vehicle: saline with Tween-80"}, "[4]": {"conditions": "dose: 200.0 mg/kg/injection, schedule: Q01DX005 (ip), vehicle: saline with Tween-80"}}, "note": "Toxic doses and inconclusive results are not listed.", "data": [{"smiles": "Cc1cc(=O)c2c(C)cccc2[nH]1", "values": [{"measurement": "T/C", "setting": "dose: 2.75 mg/kg/injection, schedule: Q01DX009 (ip), vehicle: saline with Tween-80", "result": "100 % of control"}, {"measurement": "T/C", "setting": "dose: 4.13 mg/kg/injection, schedule: Q01DX009 (ip), vehicle: saline with Tween-80", "result": "118 % of control"}, {"measurement": "T/C", "setting": "[1]", "result": "100 % of control"}, {"measurement": "T/C", "setting": "dose: 9.38 mg/kg/injection, schedule: Q01DX009 (ip), vehicle: saline with Tween-80", "result": "100 % of control"}]}, {"smiles": "COC(=O)/C=C/c1ccc[n+]([O-])c1", "values": [{"measurement": "T/C", "setting": "dose: 50.0 mg/kg/injection, schedule: Q01DX005 (ip), vehicle: saline", "result": "99 % of control"}, {"measurement": "T/C", "setting": "dose: 100.0 mg/kg/injection, schedule: Q01DX005 (ip), vehicle: saline", "result": "98 % of control"}, {"measurement": "T/C", "setting": "dose: 200.0 mg/kg/injection, schedule: Q01DX005 (ip), vehicle: saline", "result": "99 % of control"}]}, {"smiles": "Cc1c(NC(=O)Nc2cc([N+](=O)[O-])ccc2Cl)c(=O)n(-c2ccccc2)n1C", "values": [{"measurement": "T/C", "setting": "dose: 60.0 mg/kg/injection, schedule: Q01DX005 (ip), vehicle: saline with Tween-80", "result": "94 % of control"}, {"measurement": "T/C", "setting": "dose: 120.0 mg/kg/injection, schedule: Q01DX005 (ip), vehicle: saline with Tween-80", "result": "86 % of control"}]}, {"smiles": "CC[N+](C)(CC)C/C(C)=C(/c1ccccc1S(=O)(=O)N(C)C)C(C)C[N+](C)(CC)CC", "note": "(stereo unspecified)", "values": [{"measurement": "T/C", "setting": "dose: 12.5 mg/kg/injection, schedule: Q04DX003 (ip), vehicle: saline", "result": "102 % of control"}, {"measurement": "T/C", "setting": "dose: 25.0 mg/kg/injection, schedule: Q04DX003 (ip), vehicle: saline", "result": "103 % of control"}]}, {"smiles": "COc1c2occc2c(N=Cc2c[nH]c3ccccc23)c2ccc(=O)oc12", "values": [{"measurement": "T/C", "setting": "[2]", "result": "92 % of control"}, {"measurement": "T/C", "setting": "[3]", "result": "93 % of control"}, {"measurement": "T/C", "setting": "[4]", "result": "86 % of control"}]}, {"smiles": "CC1=CC(O)(c2nc3ccccc3s2)CC(C)(C)C1", "note": "(stereo unspecified)", "values": [{"measurement": "T/C", "setting": "dose: 60.0 mg/kg/injection, schedule: Q01DX005 (ip), vehicle: Klucel (hydroxypropylcellulose) (HPC)", "result": "93 % of control"}, {"measurement": "T/C", "setting": "dose: 120.0 mg/kg/injection, schedule: Q01DX005 (ip), vehicle: Klucel (hydroxypropylcellulose) (HPC)", "result": "94 % of control"}, {"measurement": "T/C", "setting": "dose: 240.0 mg/kg/injection, schedule: Q01DX005 (ip), vehicle: Klucel (hydroxypropylcellulose) (HPC)", "result": "92 % of control"}]}, {"smiles": "CC(=O)OC1C(c2ccc(Cl)cc2)CC2CCC1N2C", "note": "(stereo unspecified)", "values": [{"measurement": "T/C", "setting": "[2]", "result": "103 % of control"}, {"measurement": "T/C", "setting": "[3]", "result": "102 % of control"}]}, {"smiles": "Clc1ccc2c(cnc3ccccc32)n1", "values": [{"measurement": "T/C", "setting": "dose: 12.5 mg/kg/injection, schedule: Q04DX002 (ip), vehicle: saline with Tween-80", "result": "102 % of control"}, {"measurement": "T/C", "setting": "dose: 25.0 mg/kg/injection, schedule: Q04DX002 (ip), vehicle: saline with Tween-80", "result": "102 % of control"}, {"measurement": "T/C", "setting": "dose: 50.0 mg/kg/injection, schedule: Q04DX002 (ip), vehicle: saline with Tween-80", "result": "101 % of control"}]}, {"smiles": "O=S(=O)(Nc1nccs1)c1ccc(Nc2c3ccc(Cl)cc3nc3ncccc23)cc1", "values": [{"measurement": "T/C", "setting": "[2]", "result": "105 % of control"}, {"measurement": "T/C", "setting": "[3]", "result": "102 % of control"}, {"measurement": "T/C", "setting": "[4]", "result": "98 % of control"}]}, {"smiles": "Cc1c(-c2ccc(C(=N)N)cc2)oc(-c2ccc(C(=N)N)cc2)c1C", "values": [{"measurement": "T/C", "setting": "dose: 3.13 mg/kg/injection, schedule: Q01DX009 (ip), vehicle: saline with Tween-80", "result": "104 % of control"}, {"measurement": "T/C", "setting": "[1]", "result": "112 % of control"}]}, {"smiles": "CC1=C[C@H]2[C@@]3(O)[C@H](C)[C@@H](OC(=O)c4ccccc4)[C@]4(OC(=O)c5ccccc5)[C@H]([C@@H]3C=C(COC(=O)c3ccccc3)C[C@]2(O)C1=O)C4(C)C", "values": [{"measurement": "T/C", "setting": "dose: 20.0 micrograms/kg/injection, schedule: Q01DX009 (ip), vehicle: saline + alcohol", "result": "100 % of control"}, {"measurement": "T/C", "setting": "dose: 40.0 micrograms/kg/injection, schedule: Q01DX009 (ip), vehicle: saline + alcohol", "result": "96 % of control"}, {"measurement": "T/C", "setting": "dose: 80.0 micrograms/kg/injection, schedule: Q01DX009 (ip), vehicle: saline + alcohol", "result": "102 % of control"}, {"measurement": "T/C", "setting": "dose: 160.0 micrograms/kg/injection, schedule: Q01DX009 (ip), vehicle: saline + alcohol", "result": "100 % of control"}, {"measurement": "T/C", "setting": "dose: 320.0 micrograms/kg/injection, schedule: Q01DX009 (ip), vehicle: saline + alcohol", "result": "94 % of control"}]}, {"smiles": "OCc1c(Cl)nc2n1CCS2", "values": [{"measurement": "T/C", "setting": "dose: 25.0 mg/kg/injection, schedule: Q01DX001 (ip), vehicle: saline with Tween-80", "result": "104 % of control"}, {"measurement": "T/C", "setting": "dose: 50.0 mg/kg/injection, schedule: Q01DX001 (ip), vehicle: saline with Tween-80", "result": "104 % of control"}]}, {"smiles": "N=C(N)c1cn(C2OC(CO)C(O)C2O)c2ncnc(N)c12", "note": "(stereo unspecified)", "values": [{"measurement": "T/C", "setting": "dose: 1.33 mg/kg/injection, schedule: Q01DX009 (ip), vehicle: saline", "result": "178 % of control"}, {"measurement": "T/C", "setting": "dose: 2.0 mg/kg/injection, schedule: Q01DX009 (ip), vehicle: saline", "result": "187 % of control"}, {"measurement": "T/C", "setting": "dose: 3.0 mg/kg/injection, schedule: Q01DX009 (ip), vehicle: saline", "result": "183 % of control"}, {"measurement": "T/C", "setting": "dose: 4.5 mg/kg/injection, schedule: Q01DX009 (ip), vehicle: saline", "result": "192 % of control"}, {"measurement": "T/C", "setting": "dose: 7.5 mg/kg/injection, schedule: Q04DX003 (ip), vehicle: saline", "result": "163 % of control"}]}, {"smiles": "CC(=O)N(C(C)=O)N(C(C)=O)c1cc2ccccc2cn1", "values": [{"measurement": "T/C", "setting": "[2]", "result": "88 % of control"}, {"measurement": "T/C", "setting": "[3]", "result": "91 % of control"}]}]}
